In the oligonucleotide strings, read from the 5' end, every base follows the letter of its sugar. An asterisk marks phosphorothioate; unmarked linkages are phosphodiester. Other units and linkages are bracketed, terminal groups are in braces. A string of capitals states the bases alone. {NAG37} = tridentate N-acetyl-galactosamine targeting ligand, structure (NAG37)s; [invAb] = inverted abasic unit; m = 2'-O-methyl; f = 2'-fluoro
Experiments:
Type in all cases: in vivo, cynomolgus macaque (Macaca fascicularis)
[1] = system: ANGPTL3 gene; assay: Example 9: serum LDL in cynomolgus monkeys; conditions: 2.0 mg/kg single SC injection day 1, cynos, n=3
Protocol: (§1) Additional ANGPTL3 RNAi agents were evaluated in cynomolgus monkeys. On day 1, cynomolgus macaque (Macaca fascicularis) primates (also referred to herein as “cynos”) were administered a single subcutaneous injection of 0.3 mL/kg (approximately 2-3 mL volume, depending on animal mass) containing 2.0 mg/kg of an ANGPTL3 RNAi agent, which included either AD05488, AD05743, AD05775, or AD05841, each formulated in saline. […] ANGPTL3 RNAi agents AD05488, AD05743, and AD05775 included nucleotide sequences designed to target position 304 of the ANGPTL3 gene. ANGPTL3 RNAi agent AD05841 included nucleotide sequences designed to target position 1035 of the ANGPTL3 gene.
(§2) Three (3) cynos in each group were tested (n=3). Blood samples were drawn and serum samples were analyzed on days −14 (predose), −7 (predose), 1 (pre-dose), 8, 15, 22, 29, and 35. Cynos were fasted overnight prior to each collection. ANGPTL3 protein levels in serum were measured by ELISA assay (R&D Systems), according to the manufacturer's recommendations. Triglycerides, total cholesterol, high-density lipoprotein (HDL), and low-density lipoprotein (LDL) in serum were measured on a Cobas® Integra 400 (Roche Diagnostics), according to the manufacturer's recommendations.
(§3) The ANGPTL3 protein levels, triglyceride levels, total cholesterol levels, HDL levels, and LDL levels for each animal were normalized. For normalization, the level of ANGPTL3 protein, triglyceride, HDL, and total cholesterol, respectively, for each animal at a time point, was divided by the average pre-treatment level of expression in that animal (in this case at days −14, −7, and 1) to determine the ratio of expression “normalized to pre-treatment.”

[2] = system: ANGPTL3 gene; assay: Example 9: serum total cholesterol in cynomolgus monkeys; conditions: 2.0 mg/kg single SC injection day 1, cynos, n=3
Protocol: as §1, §2, §3

[3] = system: ANGPTL3 gene; assay: Example 9: serum triglycerides in cynomolgus monkeys; conditions: 2.0 mg/kg single SC injection day 1, cynos, n=3
Protocol: as §1, §2, §3

[4] = system: ANGPTL3 gene; assay: Example 9: serum HDL in cynomolgus monkeys; conditions: 2.0 mg/kg single SC injection day 1, cynos, n=3
Protocol: as §1, §2, §3

[5] = system: ANGPTL3 protein; assay: Example 9: serum ANGPTL3 protein by ELISA in cynomolgus monkeys; conditions: for Average ANGPTL3 Protein Normalized to Pre-Treatment: 2.0 mg/kg single SC injection day 1, cynos, n=3
Protocol: as §1, §2, §3

[6] = system: ANGPTL3 gene; assay: Example 8: serum total cholesterol in cynomolgus monkeys; conditions: 3.0 mg/kg single SC injection day 1, cynos, n=2
Protocol: (§4) Additional ANGPTL3 RNAi agents were evaluated in cynomolgus monkeys. On day 1, cynomolgus macaque (Macaca fascicularis) primates (also referred to herein as “cynos”) were administered a single subcutaneous injection of 0.3 mL/kg (approximately 1-2 mL volume, depending on animal mass) containing 3.0 mg/kg of one of ANGPTL3 RNAi agent AD05577, AD05307, AD05488, AD05654, or AD05659, each formulated in saline.
as §2, with “Two (2)” for “Three (3)”, “(n=2).” for “(n=3).”, “−8 (pre-dose),” for “−14 (predose), −7 (predose),”, “36.” for “35.”
(§5) The ANGPTL3 protein levels, triglyceride levels, total cholesterol levels, HDL levels, and LDL levels for each animal were normalized. For normalization, the level of ANGPTL3 protein, triglyceride, HDL, and total cholesterol, respectively, for each animal at a time point, was divided by the average pre-treatment level of expression in that animal (in this case at days −8, and 1 (pre-dose)) to determine the ratio of expression “normalized to pre-treatment.”

[7] = system: ANGPTL3 gene; assay: Example 8: serum triglycerides in cynomolgus monkeys; conditions: 3.0 mg/kg single SC injection day 1, cynos, n=2
Protocol: as §4
as §2, with “Two (2)” for “Three (3)”, “(n=2).” for “(n=3).”, “−8 (pre-dose),” for “−14 (predose), −7 (predose),”, “36.” for “35.”
as §5

[8] = system: ANGPTL3 protein; assay: Example 8: serum ANGPTL3 protein by ELISA in cynomolgus monkeys; conditions: for Avg ANGPTL3 protein normalized to pre-treatment: 3.0 mg/kg single SC injection day 1, cynos, n=2
Protocol: as §4
as §2, with “Two (2)” for “Three (3)”, “(n=2).” for “(n=3).”, “−8 (pre-dose),” for “−14 (predose), −7 (predose),”, “36.” for “35.”
as §5

[9] = system: ANGPTL3 gene; assay: Example 8: serum LDL in cynomolgus monkeys; conditions: 3.0 mg/kg single SC injection day 1, cynos, n=2
Protocol: as §4
as §2, with “Two (2)” for “Three (3)”, “(n=2).” for “(n=3).”, “−8 (pre-dose),” for “−14 (predose), −7 (predose),”, “36.” for “35.”
as §5

[10] = system: ANGPTL3 gene; assay: Example 8: serum HDL in cynomolgus monkeys; conditions: 3.0 mg/kg single SC injection day 1, cynos, n=2
Protocol: as §4
as §2, with “Two (2)” for “Three (3)”, “(n=2).” for “(n=3).”, “−8 (pre-dose),” for “−14 (predose), −7 (predose),”, “36.” for “35.”
as §5

## AD05743: RNAi agent duplex: antisense AM07235-AS, sense AM07579-SS (antisense mU*fA*mC*fUmGfAmUfCmAfAmAfUmAfUmGfUmUfGmAfG*mC; sense {NAG37}*[invAb]*mGmCfUmCfAmAfCmAfUfAfUmUmUmGmAmUmCmAmGmUmA*[invAb])
[1]; Day 8
  Average LDL Normalized to Pre-Treatment: 1.055
[1]; Day 15
  Average LDL Normalized to Pre-Treatment: 0.825
[1]; Day 22
  Average LDL Normalized to Pre-Treatment: 0.986
[1]; Day 29
  Average LDL Normalized to Pre-Treatment: 0.941
[1]; Day 35
  Average LDL Normalized to Pre-Treatment: 0.911
[2]; Day 8
  Average Total Cholesterol Normalized to Pre-Treatment: 0.925
[2]; Day 15
  Average Total Cholesterol Normalized to Pre-Treatment: 0.758
[2]; Day 22
  Average Total Cholesterol Normalized to Pre-Treatment: 0.768
[2]; Day 29
  Average Total Cholesterol Normalized to Pre-Treatment: 0.807
[2]; Day 35
  Average Total Cholesterol Normalized to Pre-Treatment: 0.752
[3]; Day 8
  Average Triglycerides Normalized to Pre-Treatment: 0.646
[3]; Day 15
  Average Triglycerides Normalized to Pre-Treatment: 0.708
[3]; Day 22
  Average Triglycerides Normalized to Pre-Treatment: 0.458
[3]; Day 29
  Average Triglycerides Normalized to Pre-Treatment: 0.479
[3]; Day 35
  Average Triglycerides Normalized to Pre-Treatment: 0.521
[4]; Day 8
  Average HDL Normalized to Pre-Treatment: 0.849
[4]; Day 15
  Average HDL Normalized to Pre-Treatment: 0.797
[4]; Day 22
  Average HDL Normalized to Pre-Treatment: 0.666
[4]; Day 29
  Average HDL Normalized to Pre-Treatment: 0.757
[4]; Day 35
  Average HDL Normalized to Pre-Treatment: 0.677
[5]; Day 8
  Average ANGPTL3 Protein Normalized to Pre-Treatment: 0.349
[5]; Day 15
  Average ANGPTL3 Protein Normalized to Pre-Treatment: 0.316
[5]; Day 22
  Average ANGPTL3 Protein Normalized to Pre-Treatment: 0.322
[5]; Day 29
  Average ANGPTL3 Protein Normalized to Pre-Treatment: 0.381
[5]; Day 35
  Average ANGPTL3 Protein Normalized to Pre-Treatment: 0.346
[5]; each of the measured time points, single 2.0 mg/kg subcutaneous, cynomolgus monkeys
  reduction in ANGPTL3 protein compared to pre-treatment: reduction

## AD05577: RNAi agent duplex: antisense AM07350-AS, sense AM07002-SS (antisense mU*fG*mU*mUmGmAmAmUmUmAmAfUmGfUmCfCmAfUmGfG*mA; sense {NAG37}*[invAb]*mUmCmCmAmUmGmGmAfCfAfUmUmAmAmUmUmCmAmAmCmA*[invAb])
[6]; Day 8
  Avg Total Chol normalized to pre-treatment: 0.885
[6]; Day 15
  Avg Total Chol normalized to pre-treatment: 0.931
[6]; Day 22
  Avg Total Chol normalized to pre-treatment: 0.844
[6]; Day 29
  Avg Total Chol normalized to pre-treatment: 0.839
[6]; Day 36
  Avg Total Chol normalized to pre-treatment: 0.936
[7]; Day 8
  Avg TG normalized to pre-treatment: 1.159
[7]; Day 15
  Avg TG normalized to pre-treatment: 0.977
[7]; Day 22
  Avg TG normalized to pre-treatment: 0.855
[7]; Day 29
  Avg TG normalized to pre-treatment: 0.886
[7]; Day 36
  Avg TG normalized to pre-treatment: 0.748
[8]; Day 8
  Avg ANGPTL3 protein normalized to pre-treatment: 0.503
[8]; Day 15
  Avg ANGPTL3 protein normalized to pre-treatment: 0.544
[8]; Day 22
  Avg ANGPTL3 protein normalized to pre-treatment: 0.754
[8]; Day 29
  Avg ANGPTL3 protein normalized to pre-treatment: 0.586
[8]; Day 36
  Avg ANGPTL3 protein normalized to pre-treatment: 0.479
[8]; all measured time points, single 3.0 mg/kg subcutaneous, cynomolgus monkeys
  reduction in ANGPTL3 protein compared to pre-treatment: reduction
[9]; Day 8
  Average LDL Normalized to Pre-Treatment: 0.951
[9]; Day 15
  Average LDL Normalized to Pre-Treatment: 1.091
[9]; Day 22
  Average LDL Normalized to Pre-Treatment: 0.860
[9]; Day 29
  Average LDL Normalized to Pre-Treatment: 0.991
[9]; Day 36
  Average LDL Normalized to Pre-Treatment: 0.925
[10]; Day 8
  Average HDL Normalized to Pre-Treatment: 0.855
[10]; Day 15
  Average HDL Normalized to Pre-Treatment: 0.788
[10]; Day 22
  Average HDL Normalized to Pre-Treatment: 0.818
[10]; Day 29
  Average HDL Normalized to Pre-Treatment: 0.857
[10]; Day 36
  Average HDL Normalized to Pre-Treatment: 0.852

— patent US12729377B2, “RNAi agents and compositions for inhibiting expression of angiopoietin-like 3 (ANGPTL3), and methods of use” (Arrowhead Pharmaceuticals, Inc., priority 2017, dated 2026)
